Assay results reported in patent US10537563B2, “Methods for treating ocular disease using inhibitors of CSF-1R” (NOVARTIS AG, priority 2016, dated 2020).
pEC50: −log10 of the molar value.

Tests used:
Src = Src (Homo sapiens, UniProt P12931); test: In vitro kinase assay (Table 1); type: biochemical
BAF/Tel-AlK-Q1/sACP = biological target: T1, BAF/Tel-AlK-Q1/sACP (Homo sapiens, UniProt Q9UM73); test: BaF3 proliferation assay; type: cell-based, murine
T1 construct: fused on or other part: P41212 (Transcription factor ETV6)

BaF3-Tel-INSR 1.2 = biological target: T2, BaF3-Tel-INSR 1.2 (Homo sapiens, UniProt P06213); test: BaF3 proliferation assay; type: cell-based, murine
T2 construct: fused on or other part: P41212 (Transcription factor ETV6)

Hck = Hck (Homo sapiens, UniProt P08631); test: In vitro kinase assay (Table 1); type: biochemical
BAF/Tel-TIE2-1.2/sACP = biological target: T3, BAF/Tel-TIE2-1.2/sACP (Homo sapiens, UniProt Q02763); test: BaF3 proliferation assay; type: cell-based, murine
T3 construct: fused on or other part: P41212 (Transcription factor ETV6)

PKC_alpha = PKC_alpha (Homo sapiens, UniProt P17252); test: In vitro kinase assay (Table 1); type: biochemical
BAF/Tel-FGFR2-Q1/sACP = biological target: T4, BAF/Tel-FGFR2-Q1/sACP (Homo sapiens, UniProt P21802); test: BaF3 proliferation assay; type: cell-based, murine
T4 construct: fused on or other part: P41212 (Transcription factor ETV6)

human macrophages [1] = test: In vitro survival of human macrophages (CellTiter-Glo); type: cell-based; settings: 1 and 10 μM
Description: (§1) Freshly isolated human PBMCs were used to purify human monocytes by negative selection using an indirect magnetic labeling system. […] Soluble factors such as cytokines (VEGFa, IL-6 etc.) and chemokines (IL-8, MCP-1, MMP9 etc.) in the culture supernatant were measured using commercial ELISA kits. The in vitro survival of human macrophages was measured using a commercially available CellTiter-Glo® system. Most observed results were repeated in multiple donors (n>5).

[2] = system: MCSF-dependent proliferation; test: MCSF-dependent proliferation; type: cell-based; settings: read-out: MCSF-dependent proliferation cellular EC50
CSF-1 receptor = CSF-1 receptor expression on human monocytes; type: cell-based; settings: day 1 to day 3
Description: as §1

CD163 = CD163 expression in M2c macrophages; type: cell-based, human
Description: as §1

Fyn = Fyn (Homo sapiens, UniProt P06241); test: In vitro kinase assay (Table 1); type: biochemical
ZAP70 = ZAP70 (Homo sapiens, UniProt P43403); test: In vitro kinase assay (Table 1); type: biochemical
PDK_1 = PDK_1 (Homo sapiens, UniProt O15530); test: In vitro kinase assay (Table 1); type: biochemical
BAF/Tel-FGFR3-Q2/sACP = biological target: T5, BAF/Tel-FGFR3-Q2/sACP (Homo sapiens, UniProt P22607); test: BaF3 proliferation assay; type: cell-based, murine
T5 construct: fused on or other part: P41212 (Transcription factor ETV6)

BaF-NPM-ALK = biological target: T6, BaF-NPM-ALK (Homo sapiens, UniProt Q9UM73); test: BaF3 proliferation assay; type: cell-based, murine
T6 construct: expressed in transfected cells; host or cells: BaF3 (murine pro-B cell line); the other entry of the earlier key: NPM1 (P06748, Nucleophosmin)

COT = COT (Homo sapiens, UniProt P41279); test: In vitro kinase assay (Table 1); type: biochemical
BAF/Tel-RON-4.1/sACP = biological target: T7, BAF/Tel-RON-4.1/sACP (Homo sapiens, UniProt Q04912); test: BaF3 proliferation assay; type: cell-based, murine
T7 construct: fused on or other part: P41212 (Transcription factor ETV6)

IGF-1R = IGF-1R (Homo sapiens, UniProt P08069); test: In vitro kinase assay (Table 1); type: biochemical
VEGFa = VEGFa production by human macrophages; type: cell-based; settings: stimulation with MCSF or IL-34
Description: as §1
Activated human macrophages are a source of VEGFa. Human macrophages produce VEGFa following stimulation with MCSF or IL-34.

BAF/Tel-EphB2-Q2/sACP = biological target: T8, BAF/Tel-EphB2-Q2/sACP (Homo sapiens, UniProt P29323); test: BaF3 proliferation assay; type: cell-based, murine
T8 construct: fused on or other part: P41212 (Transcription factor ETV6)

Erk1 = Erk1 (Homo sapiens, UniProt P27361); test: In vitro kinase assay (Table 1); type: biochemical
BAF/Tel-BMX-1.2/sACP = biological target: T9, BAF/Tel-BMX-1.2/sACP (Homo sapiens, UniProt P51813); test: BaF3 proliferation assay; type: cell-based, murine
T9 construct: fused on or other part: P41212 (Transcription factor ETV6)

BAF/Tel-Lyn-1.2/sACP = biological target: T10, BAF/Tel-Lyn-1.2/sACP (Homo sapiens, UniProt P07948); test: BaF3 proliferation assay; type: cell-based, murine
T10 construct: fused on or other part: P41212 (Transcription factor ETV6)

BAF/Tel-KDR-Q4/sACP = biological target: T11, BAF/Tel-KDR-Q4/sACP (Homo sapiens, UniProt P35968); test: BaF3 proliferation assay; type: cell-based, murine
T11 construct: fused on or other part: P41212 (Transcription factor ETV6)

BAF/bRaf Pim1-1/sACP = test: BaF3 proliferation assay; type: cell-based, murine; settings: Mus musculus
Insulin RK = Insulin RK (Homo sapiens, UniProt P06213); test: In vitro kinase assay (Table 1); type: biochemical
Plk1 = Plk1 (Homo sapiens, UniProt P53350); test: In vitro kinase assay (Table 1); type: biochemical
[3] = system: cytokine-polarized human macrophages (M1 or M2); test: Survival of fully differentiated, cytokine-polarized human macrophages; type: cell-based
Description: as §1

human macrophages [4] = test: CSF-1 and IL-34 mediated macrophage survival; type: cell-based; settings: 0.1 to 10 μM; 4 donors
Description: as §1
A dose range (0 to 100 ng/ml) of CSF-1 or IL-34 was tested and macrophage survival positively correlated with increasing dose of CSF-1 or IL-34 with no difference between the 2 factors observed.

BAF/Tel-TRKC-Q2/sACP = biological target: T12, BAF/Tel-TRKC-Q2/sACP (Homo sapiens, UniProt Q16288); test: BaF3 proliferation assay; type: cell-based, murine
T12 construct: fused on or other part: P41212 (Transcription factor ETV6)

VEGF = test: Interaction with VEGF versus CSF-1 receptor signaling; settings: at concentrations where the signaling of the CSF-1 receptor is strongly or completely inhibited
FGFR1 = FGFR1 (Homo sapiens, UniProt P11362); test: In vitro kinase assay (Table 1); type: biochemical
BAF/Tel-Lck-2.1/sACP = biological target: T13, BAF/Tel-Lck-2.1/sACP (Homo sapiens, UniProt P06239); test: BaF3 proliferation assay; type: cell-based, murine
T13 construct: fused on or other part: P41212 (Transcription factor ETV6)

Chain of Insulin RK (P06213 28-1382): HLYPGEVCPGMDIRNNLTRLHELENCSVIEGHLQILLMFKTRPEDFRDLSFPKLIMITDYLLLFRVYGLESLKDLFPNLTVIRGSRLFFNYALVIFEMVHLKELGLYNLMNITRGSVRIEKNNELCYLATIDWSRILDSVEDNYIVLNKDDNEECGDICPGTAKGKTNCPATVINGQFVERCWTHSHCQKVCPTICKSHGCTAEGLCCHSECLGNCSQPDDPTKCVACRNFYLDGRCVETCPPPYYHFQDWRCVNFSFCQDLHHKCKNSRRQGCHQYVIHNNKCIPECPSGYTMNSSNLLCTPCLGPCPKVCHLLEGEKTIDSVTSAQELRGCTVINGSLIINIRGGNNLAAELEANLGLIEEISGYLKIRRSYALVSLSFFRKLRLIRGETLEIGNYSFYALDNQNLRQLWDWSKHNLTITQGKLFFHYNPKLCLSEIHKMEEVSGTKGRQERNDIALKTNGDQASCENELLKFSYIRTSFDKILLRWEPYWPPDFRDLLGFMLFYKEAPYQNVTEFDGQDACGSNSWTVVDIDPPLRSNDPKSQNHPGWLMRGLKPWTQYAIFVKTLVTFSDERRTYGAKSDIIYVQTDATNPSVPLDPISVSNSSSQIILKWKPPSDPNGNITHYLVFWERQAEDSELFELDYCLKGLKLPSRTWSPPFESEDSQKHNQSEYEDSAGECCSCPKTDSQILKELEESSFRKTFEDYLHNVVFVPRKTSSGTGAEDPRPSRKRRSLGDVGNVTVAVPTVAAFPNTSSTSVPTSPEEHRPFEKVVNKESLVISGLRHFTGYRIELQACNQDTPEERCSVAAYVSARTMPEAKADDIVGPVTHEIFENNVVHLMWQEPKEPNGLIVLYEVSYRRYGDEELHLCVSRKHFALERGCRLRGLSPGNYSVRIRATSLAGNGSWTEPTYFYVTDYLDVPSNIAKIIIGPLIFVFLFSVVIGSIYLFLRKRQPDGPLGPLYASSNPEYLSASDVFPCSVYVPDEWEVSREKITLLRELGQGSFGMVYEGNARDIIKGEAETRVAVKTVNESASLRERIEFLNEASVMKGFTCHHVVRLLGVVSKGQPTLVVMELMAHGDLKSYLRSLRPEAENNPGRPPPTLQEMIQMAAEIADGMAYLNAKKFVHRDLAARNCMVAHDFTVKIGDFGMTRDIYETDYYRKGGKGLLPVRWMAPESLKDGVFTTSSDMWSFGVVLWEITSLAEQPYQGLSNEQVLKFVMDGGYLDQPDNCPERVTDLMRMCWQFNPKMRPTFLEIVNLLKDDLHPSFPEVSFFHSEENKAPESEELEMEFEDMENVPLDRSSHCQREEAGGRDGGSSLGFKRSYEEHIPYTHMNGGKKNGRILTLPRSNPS
T4 sequence (P21802 481-770 limits assumed, change not shown): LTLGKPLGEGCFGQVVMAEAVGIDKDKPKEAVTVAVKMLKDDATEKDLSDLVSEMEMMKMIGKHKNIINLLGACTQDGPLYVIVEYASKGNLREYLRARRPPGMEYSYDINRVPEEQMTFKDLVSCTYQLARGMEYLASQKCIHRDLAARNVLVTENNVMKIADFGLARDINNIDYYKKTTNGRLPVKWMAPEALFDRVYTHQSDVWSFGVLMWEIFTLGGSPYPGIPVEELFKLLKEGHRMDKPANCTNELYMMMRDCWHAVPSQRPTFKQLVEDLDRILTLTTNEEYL
T12 sequence (Q16288 whole entry, change not shown, the tested form may be a part): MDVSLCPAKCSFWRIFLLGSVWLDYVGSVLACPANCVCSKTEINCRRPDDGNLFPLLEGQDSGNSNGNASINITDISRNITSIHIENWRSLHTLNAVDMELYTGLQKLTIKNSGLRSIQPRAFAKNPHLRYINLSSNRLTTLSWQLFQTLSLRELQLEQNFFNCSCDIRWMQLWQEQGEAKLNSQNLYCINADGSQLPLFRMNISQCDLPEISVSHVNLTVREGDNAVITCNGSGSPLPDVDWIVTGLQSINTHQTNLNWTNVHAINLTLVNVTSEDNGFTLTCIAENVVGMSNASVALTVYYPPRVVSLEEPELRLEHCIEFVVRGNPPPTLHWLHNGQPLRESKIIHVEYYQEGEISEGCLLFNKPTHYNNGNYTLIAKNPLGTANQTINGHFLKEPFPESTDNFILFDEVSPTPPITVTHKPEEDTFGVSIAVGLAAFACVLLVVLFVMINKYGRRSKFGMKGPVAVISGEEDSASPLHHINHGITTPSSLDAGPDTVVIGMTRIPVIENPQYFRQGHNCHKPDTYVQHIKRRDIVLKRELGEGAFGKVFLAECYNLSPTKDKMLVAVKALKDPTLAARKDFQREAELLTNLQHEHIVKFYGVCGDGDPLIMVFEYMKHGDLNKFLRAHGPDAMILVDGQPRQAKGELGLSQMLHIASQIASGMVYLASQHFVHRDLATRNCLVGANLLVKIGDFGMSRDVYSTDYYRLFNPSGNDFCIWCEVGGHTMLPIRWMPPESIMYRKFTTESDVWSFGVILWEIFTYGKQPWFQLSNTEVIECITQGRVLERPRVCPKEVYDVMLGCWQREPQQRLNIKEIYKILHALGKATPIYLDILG
T3 sequence (Q02763 824-1096 limits assumed, change not shown): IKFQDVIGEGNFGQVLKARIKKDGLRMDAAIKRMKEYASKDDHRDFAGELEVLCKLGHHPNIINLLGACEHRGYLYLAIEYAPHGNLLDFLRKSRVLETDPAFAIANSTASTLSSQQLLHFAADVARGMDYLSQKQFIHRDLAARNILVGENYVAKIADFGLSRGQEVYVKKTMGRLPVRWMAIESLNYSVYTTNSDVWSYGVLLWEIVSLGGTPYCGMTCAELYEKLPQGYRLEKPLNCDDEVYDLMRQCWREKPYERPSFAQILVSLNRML
Chain of ZAP70 (P43403 whole entry, species assumed): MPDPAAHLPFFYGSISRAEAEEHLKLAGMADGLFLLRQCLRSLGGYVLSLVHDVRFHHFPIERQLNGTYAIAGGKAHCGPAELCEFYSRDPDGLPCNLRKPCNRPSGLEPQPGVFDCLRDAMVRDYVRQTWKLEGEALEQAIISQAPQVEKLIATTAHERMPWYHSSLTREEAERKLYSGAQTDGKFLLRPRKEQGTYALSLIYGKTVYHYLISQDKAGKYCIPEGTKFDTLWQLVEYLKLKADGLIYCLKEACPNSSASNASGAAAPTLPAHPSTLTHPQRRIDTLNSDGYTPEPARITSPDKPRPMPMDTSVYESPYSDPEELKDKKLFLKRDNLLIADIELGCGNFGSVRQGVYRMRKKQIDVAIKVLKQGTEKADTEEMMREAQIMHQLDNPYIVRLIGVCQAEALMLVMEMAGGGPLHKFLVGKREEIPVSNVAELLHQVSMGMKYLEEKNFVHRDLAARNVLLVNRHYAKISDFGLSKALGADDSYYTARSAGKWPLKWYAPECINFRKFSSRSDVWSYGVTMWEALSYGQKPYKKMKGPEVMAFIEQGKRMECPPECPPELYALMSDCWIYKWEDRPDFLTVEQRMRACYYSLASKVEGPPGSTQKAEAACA
T7 sequence (Q04912 1082-1345 limits assumed, change not shown): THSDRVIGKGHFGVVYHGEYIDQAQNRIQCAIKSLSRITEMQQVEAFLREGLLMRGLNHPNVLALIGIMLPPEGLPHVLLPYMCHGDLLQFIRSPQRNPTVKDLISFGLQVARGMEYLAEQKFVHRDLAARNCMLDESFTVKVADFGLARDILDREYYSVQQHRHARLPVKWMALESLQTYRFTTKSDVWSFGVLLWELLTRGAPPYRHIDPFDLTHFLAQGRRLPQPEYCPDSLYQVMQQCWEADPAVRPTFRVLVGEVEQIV
Chain of Erk1 (P27361 whole entry, species assumed): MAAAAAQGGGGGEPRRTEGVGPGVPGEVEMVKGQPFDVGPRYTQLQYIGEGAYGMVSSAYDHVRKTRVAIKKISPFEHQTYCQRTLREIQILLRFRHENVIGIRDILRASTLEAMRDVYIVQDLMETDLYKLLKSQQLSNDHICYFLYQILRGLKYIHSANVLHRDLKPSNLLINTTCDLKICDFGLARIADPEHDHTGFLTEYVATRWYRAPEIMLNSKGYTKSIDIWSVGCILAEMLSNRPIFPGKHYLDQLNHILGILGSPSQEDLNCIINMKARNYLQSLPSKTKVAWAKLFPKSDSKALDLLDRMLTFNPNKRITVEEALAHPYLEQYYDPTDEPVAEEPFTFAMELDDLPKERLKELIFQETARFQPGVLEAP
Chain of Src (P12931 whole entry, species assumed): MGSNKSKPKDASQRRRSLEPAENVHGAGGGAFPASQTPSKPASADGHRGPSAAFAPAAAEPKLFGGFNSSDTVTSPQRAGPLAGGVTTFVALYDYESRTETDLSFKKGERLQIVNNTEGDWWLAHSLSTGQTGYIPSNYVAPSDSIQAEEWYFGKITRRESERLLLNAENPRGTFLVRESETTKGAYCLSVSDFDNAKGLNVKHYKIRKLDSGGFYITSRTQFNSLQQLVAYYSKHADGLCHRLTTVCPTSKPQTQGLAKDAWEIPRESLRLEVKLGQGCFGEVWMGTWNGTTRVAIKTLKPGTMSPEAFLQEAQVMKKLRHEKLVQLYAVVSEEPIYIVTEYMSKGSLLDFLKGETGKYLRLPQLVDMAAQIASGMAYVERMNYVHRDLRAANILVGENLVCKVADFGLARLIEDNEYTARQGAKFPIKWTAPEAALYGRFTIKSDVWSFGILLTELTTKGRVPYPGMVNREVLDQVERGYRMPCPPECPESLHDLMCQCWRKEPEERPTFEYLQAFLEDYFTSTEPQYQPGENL
T8 sequence (P29323 621-884 limits assumed, change not shown): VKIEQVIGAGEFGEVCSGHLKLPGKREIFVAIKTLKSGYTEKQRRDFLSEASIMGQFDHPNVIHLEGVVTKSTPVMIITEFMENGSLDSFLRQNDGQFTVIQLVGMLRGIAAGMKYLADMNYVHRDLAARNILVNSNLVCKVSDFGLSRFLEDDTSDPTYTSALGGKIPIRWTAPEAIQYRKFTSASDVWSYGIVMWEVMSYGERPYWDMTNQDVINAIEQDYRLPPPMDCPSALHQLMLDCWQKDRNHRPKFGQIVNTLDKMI

CNC(=O)c1cc(Oc2ccc3nc(NC4CCCCC4O)sc3c2)ccn1 (centres unmarked) [Compound (I)]
IC50 (Src): > 10 µM
EC50 (BAF/Tel-AlK-Q1/sACP): > 10 µM
EC50 (BaF3-Tel-INSR 1.2): > 10 µM
IC50 (Hck): > 10 µM
EC50 (BAF/Tel-TIE2-1.2/sACP): > 10 µM
IC50 (PKC_alpha): > 10 µM
EC50 (BAF/Tel-FGFR2-Q1/sACP): > 10 µM
viability of human macrophages (CTG values and light microscope pictures) (human macrophages [1]): decreased the viability
pEC50 [2]: > 7.15
CSF-1 receptor expression on human monocytes (CSF-1 receptor): increased
CD163 expression in M2c macrophages (CD163): no Compound (I) dose effect
IC50 (Fyn): > 10 µM
IC50 (ZAP70): > 10 µM
IC50 (PDK_1): > 25 µM
EC50 (BAF/Tel-FGFR3-Q2/sACP): > 10 µM
EC50 (BaF-NPM-ALK): > 10 µM
IC50 (COT): > 25 µM
EC50 (BAF/Tel-RON-4.1/sACP): > 10 µM
IC50 (IGF-1R): > 10 µM
VEGFa levels of human macrophages (VEGFa): significantly decreased
EC50 (BAF/Tel-EphB2-Q2/sACP): > 10 µM
IC50 (Erk1): > 10 µM
EC50 (BAF/Tel-BMX-1.2/sACP): > 10 µM
EC50 (BAF/Tel-Lyn-1.2/sACP): > 10 µM
EC50 (BAF/Tel-KDR-Q4/sACP): > 10 µM
EC50 (BAF/bRaf Pim1-1/sACP): > 10 µM
IC50 (Insulin RK): > 10 µM
IC50 (Plk1): > 25 µM
survival of fully differentiated, cytokine-polarized human macrophages (M1 or M2) [3]: did not affect
CSF-1 mediated macrophage survival (human macrophages [4]): significantly affects
IL-34 mediated macrophage survival (human macrophages [4]): significantly affects
EC50 (BAF/Tel-TRKC-Q2/sACP): > 10 µM
interaction with VEGF (VEGF): not to interact strongly
IC50 (FGFR1): > 25 µM
EC50 (BAF/Tel-Lck-2.1/sACP): > 10 µM
